Source: patent publication US7098195B2, “Fluorinated glucosamine analogs useful for modulating post-translational glycosylations on cells” (Health Research, Inc., priority 2001, dated 2006)

Key:
[1] = previous studies; cited from earlier work
[2] = tested on: panel of human tumor cell lines as well as normal endothelial cells; test: Growth inhibition (IC50) of human tumor cell lines and normal endothelial cells; type: cell-based; details: newly synthesized compounds compared with compounds synthesized by the original method
Source text: Before conducting experiments with newly synthesized 3- and 4-F-GlcNAc the effects of 3- and 4-F-GlcNAc on the growth of a panel of human tumor cell lines as well as normal endothelial cells (i.e. IC50 values) were first determined and compared with the original growth inhibitory action (9 Bernacki, R. J. et al. (1977) J. Supra. Stru., 7:235–250; 10 Sharma, M. and W. Korytnyk (1980) Carbohyd. Res., 79:39–51;11 Sharma, M. et al. (1990). Carbohyd. Res., 198:205–22).

[3] = tested on: human ovarian, A121, tumor cells; details: cited from earlier work
[4] = tested on: (Galβ1,4GlcNAc)n (LEA staining); test: Lectin blot with LEA of CLA+ T-cell lysates; type: cell-based, human; details: compared with PBS or GlcNAc treatments
Description: (§1) For lectin blotting, cell lysates (25 μg/spot) were spotted onto methanol-permeabilized PVDF membrane and blocked in FBS for 1 h at RT. Blots were then probed with AP-Canavalia ensiformis agglutinin (ConA) (2.0 μg/ml PBS; specificity: α-mannose), AP-Triticum vulgaris (Wheat germ) agglutinin (WGA) (0.5 μg/ml PBS; specificity: terminal GlcNAc or GlcNAcβ1,4GlcNAc) or AP-Lycopersicon esculentum (tomato lectin) agglutinin (LEA) (1.0 μg/ml PBS; specificity: (Galβ1,4GlcNAc)n) for 1 h at RT (All lectins from EY Labs., Inc., San Mateo, Calif.). After washing 3× in PBS/0.1% Tween-20 and 1× in PBS (10 min each), blots were developed with Western Blue®.
(§2) To analyze and identify the glycan modifications on CLA^+ T-cells treated with 4-F-GlcNAc, lectin blotting experiments were performed with ConA (Specificity: α-mannose), WGA (Specificity: terminal GlcNAc or GlcNAcβ1,4GlcNAc) and LEA (Specificity: {Galβ1,4GlcNAc}n).

[5] = tested on: HECA-452 epitopes on PSGL-1; test: Western blot of HECA-452 epitopes on PSGL-1 of CLA+ T-cells; type: cell-based, human
Description: For analysis of CLA expression on T-cells treated with glycoconjugate modifiers, CLA^+ T-cells were first pretreated with neuraminidase (0.1 U/ml at 37° C. for 1 h) to eliminate functional CLA and cleave all HECA-452 reactive epitopes from the cell surface (35–38). Since we wanted to investigate whether these compounds directly affected CLA expression and function, neuraminidase pretreatment followed by incubations with glycosylation modifiers allowed for examination of de novo synthesized CLA/HECA-452 epitopes re-expressed on the cell surface. After neuraminidase digestion, cells were then incubated with tunicamycin (0.02 mM) (an inhibitor of GlcNAc phosphotransferase, the initial step of N-glycosylation), swainsonine (0.23 mM) (an inhibitor of α-mannosidase II and complex-type N-glycosylation), 4-F-GlcNAc (0.05 mM) (putative inhibitor of poly-N-acetyllactosamine biosynthesis), BAG (an inhibitor of O-glycan biosynthesis) (<2 mM) or GlcNAc (5 mM) (negative control, naturally-occurring metabolic counterpart of 4-F-GlcNAc)for 30 h in the presence of human recombinant IL-2. […] Concentrations for BAG were selected based on maximal O-glycosylation inhibitory effects at non-growth inhibitory concentrations as previously reported (39). To determine a suitable concentration of 4-F-GlcNAc for examining glycoconjugate-modifying effects without influencing cell growth or protein synthesis, we performed preliminary growth inhibitory experiments of cells incubated with 4-F-GlcNAc for 2 cell doublings (˜36 h) at 37° C. (cell viability assessed by Trypan-blue exclusion).
For lysate preparation, cells (including radiolabeled cells) were washed 3× in ice cold PBS and lysed in buffer containing 150 mM NaCl, 50 mM Tris-HCl pH 7.4, 1 mM EDTA, 0.02% NaAzide, 20 μg/ml PMSF, Complete™ protease inhibitors cocktail tablets (Roche Molecular Biochemicals) and 2% NP-40 (250 μl/10^8 cells). Following 2 h incubation on ice, insoluble cellular debris was pelleted by centrifugation for 30 min at 10,000×g at 4° C. and solubilized protein lysate was collected and quantified by Bradford protein assay (Sigma Chemical). SDS was added to a final concentration of 1% in lysate preparations utilized for immunoprecipitation experiments.
For SDS-PAGE and Western blotting, cell lysates, membrane proteins or immunoprecipitates were diluted and boiled in reducing sample buffer, and separated on 7–9% SDS-PAGE gels. Resolved protein was transferred to Sequi-blot™ PVDF membrane (Bio-Rad, Inc., Hercules, Calif.) and blocked with FBS for 1 hr at RT. Blots were incubated with rat IgM anti-human CLA HECA-452 (1 μg/ml), mouse IgG anti-human PSGL-1 moAbs PL-2 (1 μg/ml), 203, 4F9 and 4D8 (1 μg each/ml), or mouse IgG anti-human CD43 L60 (1 μg/ml) for 1 hr at RT. Isotype control immunoblots using either rat IgM or mouse IgG were performed in parallel to evaluate non-specific reactive proteins. After three washes with PBS/0.1%Tween-20 (10 min/wash), blots were incubated with the respective secondary Ab, AP-conjugated goat anti-rat IgM (1:400) or goat anti-mouse IgG (1:8000). AP substrate, Western Blue® (Promega, Madison, Wis.) was then added to develop blots.
Cells were then re-cultured in the presence of glycosylation inhibitor, diluent control (PBS) or molecular control (GlcNAc) for 30 hr and then harvested for CLA expression and functional analysis. […] To assess the duration of anti-carbohydrate effects on HECA-452 expression on PSGL-1, cells treated with 4-F-GlcNAc for 30 h and were then re-cultured in non-4-F-GlcNAc-containing medium for 72 h.

[6] = tested on: E-selectin ligand activity of CLA+ T-lymphocytes; test: Parallel-plate flow chamber, CLA+ T-cell tethering and rolling on E-selectin chimera; type: cell-based, human
Description: (§3) To analyze the affects of 4-F-GlcNAc on the function of CLA on human T-cells, we examined the ability of 4-F-GlcNAc-treated (0.05, 0.1, 0.5 mM for 30 hrs) CLA-+ T-cells cultures to engage with immobilized E- and P-selectin chimera in the parallel-plate flow chamber. As described for flow cytometric analyses (Example 13), cells were first pretreated with neuraminidase to remove terminal sialic acid residues required for HECA-452 reactivity and for E- and P-selectin ligand activity of CLA. This approach allowed for the assessment on de novo synthesized CLA molecules.
(§4) Tethering and rolling of human T-cells on recombinant human E- and P-selectin-Ig chimera (provided by Dr. Robert Fuhlbrigge, Harvard Medical School) and human L-selectin-Ig (gift from Dr. Ray Camphausen, Wyeth/Genetics Institute, Inc., Cambridge, Mass.) were analyzed in the parallel-plate flow chamber under physiologic shear stress conditions (3). To prepare E- and P-selectin-Ig chimera spots, protein A (300 μg/15 μl 0.1M NaHCO3) was adsorbed to Ten-twenty-nine™ Petri dishes for 2 h at 37° C. Human serum albumin ([…] PBS) then added and incubated for 2 h at 37° C. to block non-specific binding sites. E-selectin-Ig (50 ng/50 μl PBS) or P-selectin-Ig (50 ng/50 μl PBS) solutions was pipetted directly over the pre-existing protein A spots for 18 h at 4° C. To prepare L-selectin-Ig spots, L-selectin-Ig (300 ng/15 μl PBS) or isotype control human IgG (300 ng/15 μl) were adsorbed directly to plastic (non-protein A-coated) for 18 h at 4° C. and blocked in 100% FBS for 2 h at 4° C.
(§5) CLA^+ T-cells or freshly isolated PBL were treated with neuraminidase and metabolic glycosylation inhibitors or with protease (bromelain) as described above, washed twice in HBSS, suspended at 2×10^6/ml in HBSS/10 mM HEPES/2 mM CaCl2 (H/H/Ca^++) and infused into the chamber over selectin chimeras. Protease treatment was performed to control for residual E-selectin activity not attributable to the expression of CLA on a protein scaffold. Cell tethering was permitted at 0.6 dynes/cm^2 for 1 min, then stepwise increments in shear stress every 15 sec were employed to a final shear stress level of 60 dynes/cm^2. The number of cells rolling/viewing field (at 100× magnification) was quantified at each level of shear stress in triplicates for a minimum of three experiments. […] Negative control experiments were performed in parallel, wherein cell binding was examined in H/H adhesion assay medium containing 5 mM EDTA as well as assaying cell binding to human IgG isotype control.
(§6) Utilizing the parallel-plate flow chamber under physiologic shear stress conditions, E-, P- and L-selectin ligand activities of human CLA^+ T-cells treated were analyzed in an identical manner as cells prepared for Western blotting and autoradiography studies.

[7] = tested on: L-selectin ligand activity of human CLA+ T-cells; test: Parallel-plate flow chamber, CLA+ T-cell rolling on L-selectin chimera; type: cell-based
Description: as §4, §5, §6

[8] = tested on: α-mannose (ConA staining); type: cell-based, human; details: compared with PBS or GlcNAc treatments
Description: as §1, §2

[9] = tested on: P-selectin ligand activity of CLA+ T-lymphocytes; test: Parallel-plate flow chamber, CLA+ T-cell tethering and rolling on P-selectin chimera; type: cell-based, human
Description: as §3, §4, §5, §6

Row | SMILES | dose limiting toxicity [1] [mg/kg×6 days] | IC50 values, growth of tumor cell lines and normal endothelial cells [2] | incorporation of radiolabeled sugar precursors [3] | LEA staining of lysates [4] | de novo synthesized HECA-452 epitopes on PSGL-1 (Western blot) [5] | effects on HECA-452 expression ([5]; concentrations below 1.0 mM, preliminary, data not shown) | rolling adhesions on E-selectin chimera [6] | rolling adhesions on L-selectin chimera [7] | ConA staining of lysates [8] | rolling adhesions on P-selectin chimera [9]
1 | CC(=O)N[C@H]1C(OC(C)=O)O[C@H](COC(C)=O)[C@@H](OC(C)=O)[C@@H]1F (stereo partly drawn) [3-F-GlcNAc, 2-acetamido-2-deoxy-1,4,6-tri-O-acetyl-3-deoxy-3-fluoro-D-glucopyranose] | ~250 | identical to those that were previously described | conspicuous reductions |  |  |  |  |  |  | 
2 | CC(=O)N[C@H]1C(OCc2ccccc2)O[C@H](CO)[C@H](O)[C@@H]1O (stereo partly shown) [BAG, benzyl-O-N-acetylgalactosamide] |  |  |  | did not affect | marked reduction | minimal effects | significant reductions | significant reductions | no effect | significant reductions
